Test: Stability test of crystalline form D of bortezomib in a sealed state at 0-10° C.
Type: physicochemical
Settings: for Purity (%): HPLC purity
Experimental: The crystalline form of bortezomib prepared in Example 2 was subjected to a stability test in a sealed state at a temperature of 0-10° C. for 3.5 months.

(S, S) and (R, R) diastereomer (%) (1 month): 0.046%
(S, S) and (R, R) diastereomer (%) (1 week): 0.068%
(S, S) and (R, R) diastereomer (%) (2 month): 0.039%
(S, S) and (R, R) diastereomer (%) (2 week): 0.042%
(S, S) and (R, R) diastereomer (%) (3.5 month): 0.048%
Purity (%) (1 month): 99.80%
Purity (%) (1 week): 99.61%
Purity (%) (2 month): 99.74%
Purity (%) (2 week): 99.87%
Purity (%) (3.5 month): 99.69%
Structure (SMILES): CC(C)C[C@H](NC(=O)[C@H](Cc1ccccc1)NC(=O)c1cnccn1)B(O)O [Form D of Formula V, [(1R)-3-methyl-1-[[(2S)-1-oxo-3-phenyl-2-[(pyrazinylcarbonyl)amino]propyl]amino]butyl] boronic acid]
Stability (HPLC purity and crystalline form) (3.5 months): maintained in a stable state without any change in HPLC purity and crystalline form
